# From patent US20080009025A1, “PROTEIN KINASE REGULATION” (priority 1999, published 2008)
# Where a SMILES comes first, the peptide text is derived from it.
# Legend:
# [1] = system: PDK1; settings: ref [24], cited from earlier work
# [2] = target: T1, PDK1 (Homo sapiens, UniProt O15530); test: PDK1 activity towards synthetic peptide substrates T308tide or PDKtide; type: biochemical; set-up: Full length PDK1 (residues 1-556); made in house; host or cells: 293 cells; settings: substrate T308tide
# T1 sequence (O15530 1-556): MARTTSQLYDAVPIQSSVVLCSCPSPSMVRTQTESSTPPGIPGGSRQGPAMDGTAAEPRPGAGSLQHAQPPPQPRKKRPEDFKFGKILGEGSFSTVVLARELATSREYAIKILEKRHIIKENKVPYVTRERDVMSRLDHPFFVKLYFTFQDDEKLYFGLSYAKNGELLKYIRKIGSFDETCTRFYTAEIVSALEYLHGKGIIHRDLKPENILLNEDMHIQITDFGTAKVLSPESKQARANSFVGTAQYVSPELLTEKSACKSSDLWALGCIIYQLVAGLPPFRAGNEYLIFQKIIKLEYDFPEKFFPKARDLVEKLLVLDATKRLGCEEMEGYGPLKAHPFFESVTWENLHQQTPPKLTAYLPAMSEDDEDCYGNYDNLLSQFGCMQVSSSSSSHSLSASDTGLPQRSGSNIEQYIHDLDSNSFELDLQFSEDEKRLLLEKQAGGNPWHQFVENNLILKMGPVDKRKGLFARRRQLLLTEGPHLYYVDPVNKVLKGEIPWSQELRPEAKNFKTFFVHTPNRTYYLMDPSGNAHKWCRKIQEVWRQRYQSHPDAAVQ
# Protocol: FIG. 12. PDK1 is activated and stabilised through its interaction with PIFtide. (A) GST-PDK1 activity was measured in the presence of increasing concentrations of wild type (wt) PIFtide (closed circles) or a mutant D978A PIFtide (open circles) using the synthetic peptide substrate termed T308tide, as described in Material and Methods. The data was fitted to a hyperbola using the Kaleidagraph™ software. The connection needed to obtain 50% activation of PDK1 was […] for wt-PIFtide and 1.1 μM for D978A-PIFtide. The assay shown was performed in triplicate and there was less than 5% difference between each assay. Similar results were obtained in 2 further experiments (B)—The wild type GST-PDK1 (circles) or the L155D mutant of GST-PDK1 (squares) was incubated in the presence (closed symbols) or absence (open symbols) of […] PIFtife and then for 2 min at the indicated temperatures, rapidly brought to 0° C. (see Materials and Methods), and 2 min later assayed at 30° C. for 10 min using T308tide as substrate. The activity of PDK1 obtained by incubation at 30° C. was taken as 100%. The assay shown was performed in duplicate with similar results obtained in two separate experiments.
# FIG. 14. […] (A) His-PDK1 was assayed for activity using as substrate the indicated concentration of either PDKtide (open triangles) or T308tide (open circles). […]
# PDK1's ability to phosphorylate Thr308 of PKBα was measured using a mutant of GST-PKBα in which Ser473 was mutated to Asp (GST-473D PKBα) in the presence of phospholipid vesicles containing sn-1-stearoyl-2-arachidonoyl-D-PtdIns (3, 4, 5)P3 [13]. […] 35 μl of the resultant mixture was spotted into P81 phosphocellulose paper (2×2 cm) and the papers washed and analysed as described previously for assays of MAP kinase. […] Control assays were carried out in parallel in which either PDK1, or peptide substrate were omitted; these values were always less than 5% of the activity measured in the presence of these reagents. […]
Structure (SMILES),reduced affinity for PDK1 compared with wild type PIFtide [1] [fold],less effective at inducing PDK1 activation than wild type PIFtide [2] [fold],Kd ([1]; read-out: affinity of PDK1 for PIFtide (Kd)) [nM],"EC50 ([2]; GST-PDK1, read-out: concentration required for half-maximal (50%) activation of PDK1) [nM]",increase in PDK1 activity towards T308tide [2]
CC[C@H](C)[C@H](NC(=O)[C@H](CCCNC(=N)N)NC(=O)[C@@H]1CCCN1C(=O)[C@H](CCC(=O)O)NC(=O)[C@@H](N)CCCNC(=N)N)C(=O)N[C@@H](CC(C)C)C(=O)N[C@@H](CO)C(=O)N[C@@H](CCC(=O)O)C(=O)N[C@@H](CCC(=O)O)C(=O)N[C@@H](CCC(=O)O)C(=O)N[C@@H](CCC(N)=O)C(=O)N[C@@H](CCC(=O)O)C(=O)N[C@@H](CCSC)C(=O)N[C@@H](Cc1ccccc1)C(=O)N[C@@H](CCCNC(=N)N)C(=O)N[C@@H](CC(=O)O)C(=O)N[C@@H](Cc1ccccc1)C(=O)N[C@@H](C)C(=O)N[C@@H](Cc1ccc(O)cc1)C(=O)N[C@@H](CC(C)C)C(=O)N[C@@H](C)C(=O)N[C@@H](CC(=O)O)C(=O)N[C@@H](Cc1c[nH]c2ccccc12)C(=O)N[C@@H](CS)C(=O)O [D978A-PIFtide] (H-REPRILSEEEQEMFRDFAYLADWC-OH; N-terminus and C-terminus assumed),10,8,,,
CC[C@H](C)[C@H](NC(=O)[C@H](Cc1ccc(O)cc1)NC(=O)[C@H](CC(=O)O)NC(=O)[C@H](Cc1ccccc1)NC(=O)[C@H](CC(=O)O)NC(=O)[C@H](CCCNC(=N)N)NC(=O)[C@H](Cc1ccccc1)NC(=O)[C@H](CCSC)NC(=O)[C@H](CCC(=O)O)NC(=O)[C@H](CCC(N)=O)NC(=O)[C@H](CCC(=O)O)NC(=O)[C@H](CCC(=O)O)NC(=O)[C@H](CCC(=O)O)NC(=O)[C@H](CO)NC(=O)[C@H](CC(C)C)NC(=O)[C@@H](NC(=O)[C@H](CCCNC(=N)N)NC(=O)[C@@H]1CCCN1C(=O)[C@H](CCC(=O)O)NC(=O)[C@@H](N)CCCNC(=N)N)[C@@H](C)CC)C(=O)N[C@@H](C)C(=O)N[C@@H](CC(=O)O)C(=O)N[C@@H](Cc1c[nH]c2ccccc12)C(=O)N[C@@H](CS)C(=O)O [PIFtide] (H-REPRILSEEEQEMFRDFDYIADWC-OH; N-terminus and C-terminus assumed),,,~300,140,up to 4 fold
